Reference: the NIST ThermoML archive (doi:10.1021/je200457q)
± gives the expanded uncertainty stated by the source.

Key:
[1] = excess molar enthalpy (molar enthalpy of mixing); xn = mol fraction of the nth substance listed; settings: 101 kPa, Liquid, Flow calorimetry
[2] = 298.15 K; 101.33 kPa; Liquid; Vibrating tube method

C=CC(C)(O)CCC=C(C)C (configuration not stated) [3,7-dimethyl-1,6-octadien-3-ol] + CCCO
excess molar enthalpy [kcal/mol], [1]
Settings	283.15 K	298.15 K	313.15 K	328.15 K
x1 = 0.048	-0.0404 ± 0.00191	-0.0392 ± 0.00191	-0.0428 ± 0.00191	-0.0411 ± 0.00167
x1 = 0.096	-0.0772 ± 0.00263	-0.0786 ± 0.00263	-0.0786 ± 0.00263	-0.0698 ± 0.00215
x1 = 0.188	-0.13 ± 0.00382	-0.136 ± 0.00406	-0.134 ± 0.00382	-0.112 ± 0.00335
x1 = 0.29	-0.153 ± 0.0043	-0.167 ± 0.00478	-0.162 ± 0.00454	-0.131 ± 0.00382
x1 = 0.383	-0.154 ± 0.0043	-0.168 ± 0.00478	-0.161 ± 0.00454	-0.132 ± 0.00382
x1 = 0.491	-0.142 ± 0.00406	-0.148 ± 0.0043	-0.142 ± 0.00406	-0.119 ± 0.00335
x1 = 0.584	-0.121 ± 0.00335	-0.124 ± 0.00359	-0.123 ± 0.00359	-0.0997 ± 0.00287
x1 = 0.693	-0.0884 ± 0.00263	-0.0908 ± 0.00263	-0.0937 ± 0.00263	-0.0777 ± 0.00215
x1 = 0.794	-0.0588 ± 0.00191	-0.0614 ± 0.00191	-0.0686 ± 0.00215	-0.0574 ± 0.00167
x1 = 0.894	-0.027 ± 0.000956	-0.0311 ± 0.0012	-0.0356 ± 0.0012	-0.0304 ± 0.000956
x1 = 0.945	-0.0139 ± 0.0012	-0.0163 ± 0.000478	-0.0191 ± 0.000956	-0.0165 ± 0.000717

C=CC(C)(O)CCC=C(C)C (configuration not stated) [3,7-dimethyl-1,6-octadien-3-ol] + CCO
excess molar enthalpy [kcal/mol], [1]
Settings	283.15 K	298.15 K	313.15 K	328.15 K
x1 = 0.047	-0.0366 ± 0.00191	-0.0366 ± 0.00215	-0.0418 ± 0.00215	-0.0413 ± 0.00215
x1 = 0.094	-0.0741 ± 0.00263	-0.0805 ± 0.00287	-0.0839 ± 0.00287	-0.0798 ± 0.00263
x1 = 0.19	-0.143 ± 0.0043	-0.152 ± 0.00454	-0.157 ± 0.00454	-0.143 ± 0.00406
x1 = 0.29	-0.185 ± 0.00526	-0.198 ± 0.0055	-0.202 ± 0.00574	-0.18 ± 0.00502
x1 = 0.387	-0.191 ± 0.0055	-0.207 ± 0.00574	-0.212 ± 0.00598	-0.189 ± 0.00526
x1 = 0.481	-0.179 ± 0.00502	-0.19 ± 0.00526	-0.199 ± 0.00574	-0.177 ± 0.00502
x1 = 0.585	-0.152 ± 0.0043	-0.165 ± 0.00478	-0.17 ± 0.00478	-0.152 ± 0.0043
x1 = 0.695	-0.11 ± 0.00311	-0.121 ± 0.00359	-0.128 ± 0.00359	-0.114 ± 0.00335
x1 = 0.78	-0.0743 ± 0.00215	-0.0923 ± 0.00263	-0.101 ± 0.00287	-0.0875 ± 0.00263
x1 = 0.895	-0.0335 ± 0.0012	-0.0423 ± 0.00143	-0.0473 ± 0.00167	-0.0411 ± 0.00143
x1 = 0.946	-0.0165 ± 0.000956	-0.021 ± 0.000956	-0.0249 ± 0.0012	-0.0232 ± 0.000956

CCCCO [butan-1-ol]
Settings	mass density [kg/m3]
[2]	805.71 ± 0.15

CCO [ethanol]
Settings	mass density [kg/m3]
[2]	785.46 ± 0.15

CCCO [propan-1-ol]
Settings	mass density [kg/m3]
[2]	799.56 ± 0.15

CC(C)O [propan-2-ol]
Settings	mass density [kg/m3]
[2]	781.23 ± 0.15
